In patent publication US11919902B2, “Aryl-bipyridine amine derivatives as phosphatidylinositol phosphate kinase inhibitors” (HiberCell, Inc., priority 2017, dated 2024) one finds IC50 data, which are given here for 21 compounds.

pIC50: −log10 of the molar value.

In assay [1] the target is T1, GST tagged PIP4KtypeIIB (Homo sapiens, UniProt P78356).
T1 construct: made in house; host or cells: E. coli
T1 sequence (P78356 1-416): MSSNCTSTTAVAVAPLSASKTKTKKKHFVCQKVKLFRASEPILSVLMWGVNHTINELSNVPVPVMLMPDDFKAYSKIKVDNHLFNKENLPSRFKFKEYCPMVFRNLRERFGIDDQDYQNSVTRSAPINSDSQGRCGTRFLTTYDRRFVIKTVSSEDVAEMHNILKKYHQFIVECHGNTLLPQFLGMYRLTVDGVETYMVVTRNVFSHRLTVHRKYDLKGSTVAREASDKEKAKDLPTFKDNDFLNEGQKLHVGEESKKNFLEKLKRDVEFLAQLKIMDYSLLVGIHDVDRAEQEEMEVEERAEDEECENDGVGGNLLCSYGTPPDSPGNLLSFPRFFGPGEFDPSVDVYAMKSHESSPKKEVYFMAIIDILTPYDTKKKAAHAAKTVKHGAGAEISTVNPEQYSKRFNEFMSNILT
Description: Trans-FI P kinase assay PIP4K2B (PIP4KtypeIIB inhibition assay). The assay is classed as biochemical. The following applies: Table 4; compounds listed under IC50 range headings; 100 uM GTP, 5 nM PIP4KIIB; read-out: Trans-FI P kinase assays: PIP4K2B IC50. In outline:
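Transcreener FI fluorescence, converted to GDP by calibration, tracked product from 5 nM E. coli-expressed GST-PIP4KIIB acting on 80 uM PI5P (DOPE carrier) with 100 uM GTP. Compound (top 4.8 uM final, 5% DMSO) was preincubated 1 h at 27 C before the 2 h reaction; IC50 fitted from residual activity.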

The target in assay [2] is T2, PIP4K2A (full length protein, SignalChem) (Homo sapiens, UniProt P48426).
T2 construct: 4 nM PIP4K2A (full length protein, SignalChem); purchased SignalChem
T2 sequence (P48426 1-406): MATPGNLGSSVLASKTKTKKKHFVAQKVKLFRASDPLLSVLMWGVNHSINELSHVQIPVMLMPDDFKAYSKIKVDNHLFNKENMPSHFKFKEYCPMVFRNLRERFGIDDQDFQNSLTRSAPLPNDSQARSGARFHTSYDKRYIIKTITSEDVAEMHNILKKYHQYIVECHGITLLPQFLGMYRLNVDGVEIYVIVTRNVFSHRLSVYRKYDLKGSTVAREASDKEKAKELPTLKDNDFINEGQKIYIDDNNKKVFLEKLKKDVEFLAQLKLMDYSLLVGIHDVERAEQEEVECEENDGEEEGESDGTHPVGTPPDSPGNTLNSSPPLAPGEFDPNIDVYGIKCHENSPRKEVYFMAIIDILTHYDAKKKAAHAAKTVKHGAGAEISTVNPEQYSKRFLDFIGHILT
The assay can be described thus: Kinase Assay PIP4K2 A (Sprint); ADP-Glo biochemical assay. The following applies: Table 2; compounds listed under IC50 range headings. Put shortly:
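ADP-Glo luminescence detected ADP after a 1 h RT reaction started with 60 μM ATP solution. Before that, full-length PIP4K2A (4 nM in mix) with 100 μM PI(5)P diC8 was pre-incubated 15 min with compounds in MOPS buffer pH 7.2, 25 mM MgCl2, 0.005% Tween 20. IC50 derived from % inhibition relative to DMSO over 10 three-fold concentrations.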

Consider `CN1CCn2c(cc3c(-c4cncc(-c5ccc(C(=O)N6CCCC6)cc5)c4)ccnc32)C1=O` [Example 349, 7-methyl-4-(5-(4-(pyrrolidine-1-carbonyl)phenyl)pyridin-3-yl)-8,9-dihydropyrido[3′,2′:4,5]pyrrolo[1,2-a]pyrazin-6(7H)-one], for which the pIC50 in assay [1] and in assay [2] was 6.00 to 7.00 each time.

As for `CC(=O)Nc1ncc(-c2cn(C)c3ncc(-c4cncc(-c5ccc(N6CCCC6=O)cc5)c4)cc23)cn1` [Example 350, N-(5-(1-methyl-5-(5-(4-(2-oxopyrrolidin-1-yl)phenyl)pyridin-3-yl)-1H-pyrrolo[2,3-b]pyridin-3-yl)pyrimidin-2-yl)acetamide], the pIC50 in assay [1] was 6.00 to 7.00; in assay [2] it was 7.00 to 8.30.

Take `Cc1c2n(c3nccc(-c4cncc(-c5ccc(-c6nncn6C6CCC6)cc5)c4)c13)CCN(c1ccccn1)C2=O` [Example 356, 4-(5-(4-(4-cyclobutyl-4H-1,2,4-triazol-3-yl)phenyl)pyridin-3-yl)-5-methyl-7-(pyridin-2-yl)-8,9-dihydropyrido[3′,2′:4,5]pyrrolo[1,2-a]pyrazin-6(7H)-one]: the negative-log IC50 (pIC50) was 6.00 to 7.00 in assay [1] and above 5.30 in assay [2].

In the case of `CC(C)c1cnnn1-c1ccc(-c2cncc(-c3ccnc4c3cc3n4CCN(c4ccccn4)C3=O)c2)cc1` [Example 357, 4-(5-(4-(5-isopropyl-1H-1,2,3-triazol-1-yl)phenyl)pyridin-3-yl)-7-(pyridin-2-yl)-8,9-dihydropyrido[3′,2′:4,5]pyrrolo[1,2-a]pyrazin-6(7H)-one], the figures for the negative-log IC50 (pIC50) in assay [1] and in assay [2] were 8.00 to 9.00 and 7.00 to 8.30, respectively.

With `CCn1cnnc1-c1ccc(-c2cncc(-c3ccnc4c3cc3n4CCN(C)C3=O)c2)cc1` [Example 358, 4-(5-(4-(4-ethyl-4H-1,2,4-triazol-3-yl)phenyl)pyridin-3-yl)-7-methyl-8,9-dihydropyrido[3′,2′:4,5]pyrrolo[1,2-a]pyrazin-6(7H)-one], the figures for the pIC50 in assay [1] and in assay [2] were 8.00 to 9.00 and 6.00 to 7.00, respectively.

As to `CC(C)n1cncc1-c1ccc(-c2cncc(-c3ccnc4c3cc3n4CCN(C)C3=O)c2)cc1` [Example 359, 4-(5-(4-(1-isopropyl-1H-imidazol-5-yl)phenyl)pyridin-3-yl)-7-methyl-8,9-dihydropyrido[3′,2′:4,5]pyrrolo[1,2-a]pyrazin-6(7H)-one], the pIC50 in assay [1] and in assay [2] was 6.00 to 7.00 in each case.

For `CC[C@H](C)n1cnnc1-c1ccc(-c2cncc(-c3ccnc4c3cc3n4CCN(C)C3=O)c2)cc1` [Example 360, (S)-4-(5-(4-(4-(sec-butyl)-4H-1,2,4-triazol-3-yl)phenyl)pyridin-3-yl)-7-methyl-8,9-dihydropyrido[3′,2′:4,5]pyrrolo[1,2-a]pyrazin-6(7H)-one], the pIC50 was 7.00 to 8.00 in assay [1] and 6.00 to 7.00 in assay [2].

In the case of `CC[C@@H](C)n1cnnc1-c1ccc(-c2cncc(-c3ccnc4c3cc3n4CCN(C)C3=O)c2)cc1` [Example 361, (R)-4-(5-(4-(4-(sec-butyl)-4H-1,2,4-triazol-3-yl)phenyl)pyridin-3-yl)-7-methyl-8,9-dihydropyrido[3′,2′:4,5]pyrrolo[1,2-a]pyrazin-6(7H)-one], the pIC50 in assay [1] is 7.00 to 8.00; in assay [2] it was 6.00 to 7.00.

For the compound `CNC(=O)c1cc2c(-c3cnc(N)c(-c4ccc(-c5nncn5C(C)C)cc4)c3)ccnc2o1` [Example 362, 4-(6-amino-5-(4-(4-isopropyl-4H-1,2,4-triazol-3-yl)phenyl)pyridin-3-yl)-N-methylfuro[2,3-b]pyridine-2-carboxamide], the pIC50 in assay [1] was 7.00 to 8.00; in assay [2] it was 6.00 to 7.00.

On to `CC(C)c1cnoc1-c1ccc(-c2cncc(-c3ccnc4c3cc3n4CCN(C)C3=O)c2)cc1` [Example 363, 4-(5-(4-(4-isopropylisoxazol-5-yl)phenyl)pyridin-3-yl)-7-methyl-8,9-dihydropyrido[3′,2′:4,5]pyrrolo[1,2-a]pyrazin-6(7H)-one], for which the pIC50 in assay [1] is 7.00 to 8.00; in assay [2], 6.00 to 7.00.

Regarding `CC(C)n1ccnc1-c1ccc(-c2cncc(-c3ccnc4c3cc3n4CCN(C)C3=O)c2)cc1` [Example 364, 4-(5-(4-(1-isopropyl-1H-imidazol-2-yl)phenyl)pyridin-3-yl)-7-methyl-8,9-dihydropyrido[3′,2′:4,5]pyrrolo[1,2-a]pyrazin-6(7H)-one], the pIC50 in assay [1] is 5.60 to 6.00; in assay [2], above 5.30.

Consider `CN1CCn2c(cc3c(-c4cncc(-c5ccc(-c6nncn6C6CCC6)cc5)c4)ccnc32)C1=O` [Example 365, 4-(5-(4-(4-cyclobutyl-4H-1,2,4-triazol-3-yl)phenyl)pyridin-3-yl)-7-methyl-8,9-dihydropyrido[3′,2′:4,5]pyrrolo[1,2-a]pyrazin-6(7H)-one], for which the pIC50 was 7.00 to 8.00 in assay [1] and 5.60 to 6.00 in assay [2].

With `CNC(=O)c1cc2c(-c3cnc(N)c(-c4ccc(-c5nncn5CC(C)C)cc4)c3)ccnc2o1` [Example 366, 4-(6-amino-5-(4-(4-isobutyl-4H-1,2,4-triazol-3-yl)phenyl)pyridin-3-yl)-N-methylfuro[2,3-b]pyridine-2-carboxamide], the results for the pIC50 in assay [1] and in assay [2] were 7.00 to 8.00 and 7.00 to 8.30, respectively.

As to `CC(C)Cn1cnnc1-c1ccc(-c2cncc(-c3ccnc4c3cc3n4CCN(c4ccccn4)C3=O)c2)cc1` [Example 367, 4-(5-(4-(4-isobutyl-4H-1,2,4-triazol-3-yl)phenyl)pyridin-3-yl)-7-(pyridin-2-yl)-8,9-dihydropyrido[3′,2′:4,5]pyrrolo[1,2-a]pyrazin-6(7H)-one], the figures for the negative logarithm of the IC50 (pIC50) in assay [1] and in assay [2] were 8.00 to 9.00 and 5.30 to 5.60, respectively.

As for `CC(C)c1cnnn1-c1ccc(-c2cncc(-c3ccnc4c3cc3n4CCN(C)C3=O)c2)cc1` [Example 368, 4-(5-(4-(5-isopropyl-1H-1,2,3-triazol-1-yl)phenyl)pyridin-3-yl)-7-methyl-8,9-dihydropyrido[3′,2′:4,5]pyrrolo[1,2-a]pyrazin-6(7H)-one], the results for the pIC50 in assay [1] and in assay [2] were 8.00 to 9.00 and 7.00 to 8.30, respectively.

On to `CN1CCn2c(cc3c(-c4cncc(-c5ccc(-c6nncn6CCC6CC6)cc5)c4)ccnc32)C1=O` [Example 369], for which the negative logarithm of the IC50 (pIC50) was 7.00 to 8.00 in assay [1] and 6.00 to 7.00 in assay [2].

Regarding `Cc1ccnnc1-c1ccc(-c2cncc(-c3ccnc4c3cc3n4CCN(C)C3=O)c2)cc1` [Example 370, 7-methyl-4-(5-(4-(4-methylpyridazin-3-yl)phenyl)pyridin-3-yl)-8,9-dihydropyrido[3′,2′:4,5]pyrrolo[1,2-a]pyrazin-6(7H)-one], the pIC50 was 8.00 to 9.00 in assay [1] and 7.00 to 8.30 in assay [2].

On to `CC(C)n1cnnc1-c1ccc(-c2cncc(-c3ccnc4[nH]c(C(=O)NCCc5ccncc5)cc34)c2)cc1` [Example 371, 4-(5-(4-(4-isopropyl-4H-1,2,4-triazol-3-yl)phenyl)pyridin-3-yl)-N-(2-(pyridin-4-yl)ethyl)-1H-pyrrolo[2,3-b]pyridine-2-carboxamide], for which the negative-log IC50 (pIC50) was 7.00 to 8.00 in assay [1] and 6.00 to 7.00 in assay [2].

For `CC(C)Cn1cnnc1-c1ccc(-c2cncc(-c3ccnc4[nH]c(C(=O)NCc5ccccc5)cc34)c2)cc1` [Example 372, N-benzyl-4-(5-(4-(4-isobutyl-4H-1,2,4-triazol-3-yl)phenyl)pyridin-3-yl)-1H-pyrrolo[2,3-b]pyridine-2-carboxamide], the values for the pIC50 in assay [1] and in assay [2] were 7.00 to 8.00 and 5.60 to 6.00, respectively.

`CC(C)n1cnnc1-c1ccc(-c2cncc(-c3ccnc4[nH]c(C(=O)NCc5ccccc5)cc34)c2)cc1` [Example 373, N-benzyl-4-(5-(4-(4-isopropyl-4H-1,2,4-triazol-3-yl)phenyl)pyridin-3-yl)-1H-pyrrolo[2,3-b]pyridine-2-carboxamide]: the values for the pIC50 in assay [1] and in assay [2] were 7.00 to 8.00 and 6.00 to 7.00, respectively.

With `CC(C)n1cnnc1-c1ccc(-c2cc(-c3ccnc4c3cc3n4CCN(CC4CC4)C3=O)cnc2N)cc1` [Example 374, 4-(6-amino-5-(4-(4-isopropyl-4H-1,2,4-triazol-3-yl)phenyl)pyridin-3-yl)-7-(cyclopropylmethyl)-8,9-dihydropyrido[3′,2′:4,5]pyrrolo[1,2-a]pyrazin-6(7H)-one], the pIC50 is 8.00 to 9.00 in assay [1] and 6.00 to 7.00 in assay [2].
